Experiments:
MDR1 (P-gp) = experiment: MDCK-MDR1 permeability assay, blood-brain-barrier penetration potential; details: dog, MDCK-MDR1, pH 7.4, MDCK-MDR1 Efflux Ratio
Protocol: (§1) Experimental Procedure: MDR1-MDCK cell monolayers are grown to confluence on collagen-coated, microporous membranes in 12-well assay plates. The permeability assay buffer is Hanks' balanced salt solution containing 10 mM HEPES and 15 mM glucose at a pH of 7.4. The buffer in the receiver chamber also contained 1% bovine serum albumin. The dosing solution concentration is 5 μM of test article in the assay buffer. Cell monolayers are dosed on the apical side (A-to-B) or basolateral side (B-to-A) and incubated at 37° C. with 5% CO2 in a humidified incubator. Samples are taken from the donor and receiver chambers at 120 minutes. Each determination is performed in duplicate. The flux of lucifer yellow is also measured post-experimentally for each monolayer to ensure no damage was inflicted to the cell monolayers during the flux period. All samples are assayed by LC-MS/MS using electrospray ionization.
(§2) Analytical Method: Liquid Chromatography • Column: Waters ACQUITY UPLC BEH Phenyl 30×2.1 mm, 1.7 μm • M.P. Buffer: 25 mM ammonium formate buffer, pH 3.5 • Aqueous Reservoir (A): 90% water, 10% buffer • Organic Reservoir (B): 90% acetonitrile, 10% buffer • Flow Rate: 0.7 mL/minute • Gradient Program:
(§3) • Total Run Time: 1.00 minute • Autosampler: 2 μL injection volume • Wash1: water/methanol/2-propanol:1/1/1; with 0.2% formic acid • Wash2: 0.1% formic acid in water • Brain Penetration • Potential Classification: A-B Papp≥3.0 and Efflux Ratio<3.0: High • A-B Papp≥3.0 and 10>Efflux Ratio≥3.0: Moderate • A-B Papp≥3.0 and Efflux Ratio≥10: Low • A-B Papp<3.0: Low

MDR1 = experiment: in vitro; details: dog; for Papp A→B at 120 min, 5 μM: MDCK-MDR1, pH 7.4, MDCK-MDR1: Papp A-B (10^−6, cm/s); for Papp B→A at 120 min, 5 μM: MDCK-MDR1, pH 7.4, MDCK-MDR1: Papp B-A (10^−6, cm/s)
Protocol: as §1, §2, §3

SMN protein = SMN protein assay (MSD) in SMA patient fibroblasts (GM03813); assay type: cell-based, human
Method in brief: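 Absolute SMN protein measured by Mesoscale Discovery assay in lysates, calibrated per plate with SMN standards (1–19.5 μg/ml). Cells: GM03813 SMA fibroblasts, 7000/well, 48 h compound exposure at doses of 2.5 μM down to 0.6 nM.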

[1] = tested on: MDR1-MDCK cell monolayers; details: dog, MDCK-MDR1, 120 min, 5 μM, pH 7.4
Protocol: as §1, §2, §3

SMN FL and SMN Δ7 = experiment: Quantitative splicing assay (SMN) in SMA patient fibroblasts (GM03813); assay type: cell-based; details: Homo sapiens, Fibroblast; class symbol; read-out: SMN2 Splicing FL EC50 (nM)*
Protocol: Spinal muscular atrophy (SMA) patient fibroblasts (GM03813, Coriell) are plated in 96-well plates at 50,000 cells/well. […] Treated cells are lysed and cDNA synthesized using the Fast Advanced Cells-to-Ct kit (Thermofisher A35378) according to the manufacturer's instructions. 2 μL of each cDNA are used in qPCR reactions. […] Reactions are run in a Quant Studio 6 qPCR instrument with default settings.

SMILES | efflux ratio at 120 min, 5 μM (MDR1 (P-gp)) | Papp A→B at 120 min, 5 μM (MDR1) [×10⁻⁶ cm/s] | Papp B→A at 120 min, 5 μM (MDR1) [×10⁻⁶ cm/s] | EC50 (SMN protein) [nM] | MDCK-MDR1: % Recov A-B (%) [1] [%] | MDCK-MDR1: % Recov B-A (%) [1] [%] | EC50 (SMN FL and SMN Δ7) [nM]
COc1cc(-c2ccc(-c3cnc(N(C)[C@H]4C[C@@H]5CCC(N5)[C@H]4F)cn3)c(O)c2)cnn1 (single isomer, unassigned) [Compound 26E2] | 8 | 3.16 | 23.9 | 16 to 50 | 41 | 67 | 101 to 500
CN(c1cnc(-c2ccc(-c3cn[nH]c3)cc2O)cn1)[C@H]1C[C@@H]2CCC(N2)[C@@H]1F (single isomer, unassigned) [Compound 27E2] | 9 | 4.45 | 40.6 | 16 to 50 | 80 | 85 | 101 to 500
CN(c1cnc(-c2ccc(-c3cn[nH]c3)cc2O)cn1)[C@H]1C[C@]2(C)CCC(N2)[C@H]1F (single isomer, unassigned) [Compound 28E1] | 15 | 3.23 | 48.1 | 0.01 to 15 | 66 | 80 | 101 to 500
CN(c1cnc(-c2cc(F)c(-c3cnn(CF)c3)cc2O)cn1)[C@H]1C[C@@H]2CCC(N2)[C@H]1F (single isomer, unassigned) [Compound 29E2] | 3 | 5.59 | 18.3 | 16 to 50 | 31 | 50 | 51 to 100
COc1cc(-c2cc(O)c(-c3cnc(N(C)[C@H]4C[C@@H]5CCC(N5)[C@H]4F)cn3)cc2F)ncn1 (single isomer, unassigned) [Compound 34E2] | 2 | 3.76 | 7.23 | 16 to 50 | 21 | 66 | 51 to 100
CN(c1cnc(-c2cc(F)c(-c3cn[nH]c3)cc2O)cn1)[C@@H]1CC2CC[C@H](N2)[C@@H]1F (single isomer, unassigned) [Compound 40E1] | 6 | 6.63 | 39.2 | 16 to 50 | 54 | 75 | 51 to 100
CN(c1cnc(-c2cc(F)c(-c3cn[nH]c3)cc2O)cn1)[C@H]1C[C@@H]2CCC(N2)[C@H]1F (single isomer, unassigned) [Compound 40E2] | 5 | 7.33 | 37.1 | 0.01 to 15 | 59 | 72 | 16 to 50
CN(c1cnc(-c2ccc(-c3cnn(CF)c3)cc2O)cn1)[C@@H]1CC2CC[C@H](N2)[C@@H]1F (single isomer, unassigned) [Compound 42E1] | 6 | 5.38 | 30.4 | 16 to 50 | 48 | 59 | 51 to 100
CN(c1cnc(-c2ccc(-c3ccn(C)c(=O)c3)cc2O)cn1)[C@@H]1CC2CC[C@H](N2)[C@@H]1F (single isomer, unassigned) [Compound 45E1] | 37 | 1.3 | 47.6 | 101 to 500 | 88 | 85 | 51 to 100
COc1cc(-c2ccc(-c3cnc(N(C)[C@@H]4CC5CC[C@H](N5)[C@@H]4F)cn3)c(O)c2)ncn1 (single isomer, unassigned) [Compound 48E1] | 2 | 4.15 | 6.9 | 16 to 50 | 21 | 44 | 101 to 500
CNC(=O)/C=C/c1cc(O)c(-c2cnc(N(C)[C@H]3C[C@@H]4CCC(N4)[C@H]3F)cn2)cc1F (single isomer, unassigned) [Compound 60E2] | 24 | 2.48 | 60.1 | 0.01 to 15 | 89 | 89 | 51 to 100
COc1cc(-c2ccc(-c3cnc(N(C)[C@@H]4CC5CC(F)(F)[C@@H](C4)N5)cn3)c(O)c2)cnn1 (single isomer, unassigned) [Compound 68E2] | 5 | 9.81 | 47.2 | 501 to 10000 | 66 | 89 | 501 to 10000
CN(c1cnc(-c2ccc(-c3cn[nH]c3)cc2O)cn1)[C@@H]1CC2COC[C@H](N2)[C@@H]1F (single isomer, unassigned) [Compound 72E1] | 7 | 8.21 | 60.9 | 501 to 10000 | 90 | 112 | 501 to 10000
CN(c1cnc(-c2ccc(-c3cn[nH]c3)cc2O)cn1)[C@H]1C[C@@H]2COCC(N2)[C@H]1F (single isomer, unassigned) [Compound 72E2] | 8 | 9.82 | 82.5 | 101 to 500 | 96 | 113 | 501 to 10000
COc1cc(-c2ccc(-c3cnc(N(C)[C@H]4C[C@@H]5COCC(N5)[C@H]4F)cn3)c(O)c2)cnn1 (single isomer, unassigned) [Compound 74E2] | 18 | 3.6 | 63.2 | 501 to 10000 | 92 | 104 | 501 to 10000
CN(c1cnc(-c2ccc(C3=CC(=O)NC3)cc2O)cn1)[C@H]1C[C@@H]2CCC(N2)[C@H]1F (single isomer, unassigned) [Compound 78E2] | 55 | 0.56 | 30.7 | 16 to 50 | 94 | 82 | 501 to 10000
COc1cc(-c2ccc(-c3cnc(N(C)[C@@H]4CC5COC[C@H](N5)[C@@H]4F)cn3)c(O)c2)ccn1 (single isomer, unassigned) [Compound 81E1] | 1 | 2.69 | 3.08 | 501 to 10000 | 28 | 47 | 501 to 10000
COc1cc(-c2ccc(-c3cnc(N(C)[C@H]4C[C@@H]5COCC(N5)[C@H]4F)cn3)c(O)c2)ccn1 (single isomer, unassigned) [Compound 81E2] | 2 | 2 | 3.4 | 501 to 10000 | 42 | 77 | 101 to 500
CN(c1cnc(-c2ccc(-c3ccn(C)c(=O)c3)cc2O)cn1)[C@@H]1CC2CCC[C@H](N2)[C@@H]1F (single isomer, unassigned) [Compound 83E1] | 52 | 0.94 | 48.4 | 101 to 500 | 78 | 81 | 101 to 500
CN(c1cnc(-c2ccc(-c3ccn(C)c(=O)c3)cc2O)cn1)[C@H]1C[C@@H]2CCCC(N2)[C@H]1F (single isomer, unassigned) [Compound 83E2] | 36 | 1.28 | 45 | 16 to 50 | 106 | 118 | 101 to 500
CN(c1cnc(-c2ccc(-c3ccn(C)c(=O)c3)cc2O)cn1)[C@@H]1C[C@H]2CCC[C@H](N2)[C@@H]1F [Compound 5E1, 4-(4-(5-(((1S,2S,3R,5R)-2-fluoro-9-azabicyclo[3.3.1]nonan-3-yl)(methyl)amino)pyrazin-2-yl)-3-hydroxyphenyl)-1-methylpyridin-2(1H)-one] | 25 | 2.04 | 50.3 | 0.01 to 15 | 84 | 90 | 51 to 100
CN(c1cnc(-c2ccc(-c3cn[nH]c3)cc2O)cn1)[C@H]1C[C@]2(C)CCC[C@@](C)(N2)[C@H]1F [Compound 23E2, 2-(5-(((1R,2S,3S,5S)-2-fluoro-1,5-dimethyl-9-azabicyclo[3.3.1]nonan-3-yl)(methyl)amino)pyrazin-2-yl)-5-(1H-pyrazol-4-yl)phenol] | 2 | 5.71 | 13.6 | 0.01 to 15 | 39 | 65 | 16 to 50
